The text below walks through data of patent US20260224548A1 (priority 2022, published 2026).

Read-outs that look alike come from different tables or passages of the source.

The term IC50 denotes the concentration that gives 50% inhibition.

The target in one experiment is T1, HsEH (Homo sapiens, UniProt P34913).
T1 sequence (P34913 1-555): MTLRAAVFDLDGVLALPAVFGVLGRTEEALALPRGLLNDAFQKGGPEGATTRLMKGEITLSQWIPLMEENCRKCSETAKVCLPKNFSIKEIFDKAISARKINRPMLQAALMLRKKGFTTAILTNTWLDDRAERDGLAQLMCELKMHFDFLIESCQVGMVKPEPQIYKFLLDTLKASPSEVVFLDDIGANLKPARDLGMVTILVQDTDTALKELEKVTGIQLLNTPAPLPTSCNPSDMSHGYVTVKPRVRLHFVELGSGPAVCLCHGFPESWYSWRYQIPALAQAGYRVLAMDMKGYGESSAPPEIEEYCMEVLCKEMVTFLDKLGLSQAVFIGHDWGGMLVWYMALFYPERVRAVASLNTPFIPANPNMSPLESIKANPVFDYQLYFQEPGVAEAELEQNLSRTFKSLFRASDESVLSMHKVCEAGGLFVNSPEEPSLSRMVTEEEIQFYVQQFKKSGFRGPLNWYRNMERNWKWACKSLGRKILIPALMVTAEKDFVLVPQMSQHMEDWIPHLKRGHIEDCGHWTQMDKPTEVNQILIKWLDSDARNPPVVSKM
Nature of the experiment: biochemical. It is filed as biochemical. The text has this:
(§1) Detection principle: a specific substrate, (3-phenyl-oxy)-acetic acid cyano-(6-methoxy-naphthalen-2-yl)methyl ester, namely PHOME, is non-fluorescent but can be hydrolyzed under the action of sEH enzyme to generate a product 6-methoxy-2-naphthaldehyde. The 6-methoxy-2-naphthaldehyde can emit fluorescence with a wavelength of 465 nm under 330 nm light wave excitation, and an intensity of the detected fluorescence signal is inversely proportional to an inhibitory effect on the sEH enzyme. Based on the above principle, the inhibition rates of samples with different concentrations were calculated compared with the positive control group. The IC50 value of the compound was calculated based on the inhibition rate and concentration using SPSS 20 software.
(§2) 25 mM Tris-HCl buffer (pH=7.4, containing 0.1 mg/mL BSA): […] BAS was added to 12.5 mL of 1 M Tris-HCl buffer, followed by diluting with purified water, and a resulting mixture was adjusted to a pH value of 7.4 with hydrochloric acid, and diluted to 500 mL.
(§3) PHOME solution: 0.79 mg PHOME was dissolved in 106 μL DMSO to obtain a 20 mM PHOME solution, which was diluted to ⅓ mM with Tris-HCl buffer before use.
(§4) sEH solution: sEH (5 mg/mL) stock solution was stored in a refrigerator at −80° C. and diluted to 4 μg/mL with 25 mM Tris-HCl buffer before use.
(§5) A sample powder to be tested was dissolved in DMSO to a 20 mM solution, stored in a refrigerator at −20° C. for later use, and diluted with Tris-HCl buffer to corresponding concentrations when used.
(§6) Experimental design: solvent group, 100% activity group (A), inhibitor group (B), positive control group (C), as shown in Table 1.
(§7) Three replicate wells were set for each sample, and the average value of the three replicate wells was the fluorescence value (F) of the compound to be tested. […] The IC50 value of the compound was calculated based on the inhibition rate and concentration using SPSS 20 software.

Another experiment addresses T2, MsEH (Mus musculus, UniProt P34914).
T2 sequence (P34914 1-554): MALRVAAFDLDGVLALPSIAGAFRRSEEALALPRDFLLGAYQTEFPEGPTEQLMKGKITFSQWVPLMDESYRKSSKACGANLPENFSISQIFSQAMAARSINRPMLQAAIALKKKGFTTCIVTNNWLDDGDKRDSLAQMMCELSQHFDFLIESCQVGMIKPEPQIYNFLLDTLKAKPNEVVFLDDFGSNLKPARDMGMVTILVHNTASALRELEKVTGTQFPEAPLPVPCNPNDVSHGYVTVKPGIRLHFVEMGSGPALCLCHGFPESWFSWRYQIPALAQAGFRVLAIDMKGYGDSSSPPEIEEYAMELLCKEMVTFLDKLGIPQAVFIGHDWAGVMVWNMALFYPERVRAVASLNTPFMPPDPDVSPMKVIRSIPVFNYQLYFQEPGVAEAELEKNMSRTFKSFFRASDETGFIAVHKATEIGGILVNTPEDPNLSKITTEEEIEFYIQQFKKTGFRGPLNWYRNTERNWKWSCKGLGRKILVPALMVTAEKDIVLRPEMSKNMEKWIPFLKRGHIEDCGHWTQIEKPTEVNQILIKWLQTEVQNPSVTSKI
Nature of the experiment: sEH inhibitory activity, PHOME fluorescence assay (MsEH). Type of experiment: biochemical.
From the text: as §1, §2, §3, §4, §5, §6, §7

[1] abbreviates: PHOME substrate 50 μM, sEH 400 ng/ml, 37° C., 10 min, fluorescence 330/465 nm, read-out: HsEH IC50 (nM) Inhibitory activity against HsEH.

As to `CN(C)C(=O)[C@H]1CCCN(Cc2ccc(NC(=O)NC34CC5CC(C)(CC(C)(C5)C3)C4)c(F)c2)C1` [CL-105, (S)-1-(4-(3-((1r,3R,5S,7S)-3,5-dimethyladamantan-1-yl)ureido)-3-fluorobenzyl)-N,N-dimethylpiperidine-3-carboxamide], the IC50 at HsEH amounted to 0.7 nM; at MsEH, 0.12 nM.

For the compound `CCN(CC)C(=O)[C@H]1CCCN(Cc2ccc(NC(=O)NC34CC5CC(C)(CC(C)(C5)C3)C4)c(F)c2)C1` [CL-106, (S)-1-(4-(3-((1r,3R,5S,7S)-3,5-dimethyladamantan-1-yl)ureido)-3-fluorobenzyl)-N,N-diethylpiperidine-3-carboxamide], the IC50 turned out to be 0.35 nM at HsEH (setting [1]) and 0.5 nM at MsEH.

For the compound `CC12CC3CC(C)(C1)CC(NC(=O)Nc1ccc(CN4CCC[C@H](C(=O)N(CCO)CCO)C4)cc1F)(C3)C2` [CL-107, (S)-1-(4-(3-((1r,3R,5S,7S)-3,5-dimethyladamantan-1-yl)ureido)-3-fluorobenzyl)-N,N-bis(2-hydroxyethyl) piperidine-3-carboxamide], the concentration for half-maximal inhibition (IC50) is 0.28 nM on HsEH (setting [1]) and 0.29 nM against MsEH.

Consider `CC12CC3CC(C)(C1)CC(NC(=O)Nc1ccc(CN4CCC(C(=O)N(CCO)CCO)CC4)cc1F)(C3)C2` [CL-109, 1-(4-(3-((1r,7r)-3,5-dimethyladamantan-1-yl)ureido)-3-fluorobenzyl)-N,N-bis(2-hydroxyethyl) piperidine-4-carboxamide], for which the half-inhibitory concentration (IC50) at HsEH (setting [1]) came to 6.72 nM; against MsEH it was 0.55 nM.

As for `CC12CC3CC(C)(C1)CC(NC(=O)Nc1ccc(CN4CCC[C@H](C(=O)NC(CO)CO)C4)cc1F)(C3)C2` [CL-112, (S)—N-(1,3-dihydroxypropan-2-yl)-1-(4-(3-((1r,3R,5S,7S)-3,5-dimethyladamantan-1-yl)ureido)-3-fluorobenzyl) piperidine-3-carboxamide], the figures for the half-maximal inhibitory concentration (IC50) at HsEH (setting [1]) and against MsEH were 0.28 nM and 0.35 nM, respectively.

As to `CC(O)CNC(=O)[C@H]1CCCN(Cc2ccc(NC(=O)NC34CC5CC(C)(CC(C)(C5)C3)C4)c(F)c2)C1` (stereo partly drawn) [CL-113, (3S)-1-(4-(3-((1r,3R,5S,7S)-3,5-dimethyladamantan-1-yl)ureido)-3-fluorobenzyl)-N-(2-hydroxypropyl) piperidine-3-carboxamide], the IC50 turned out to be 0.28 nM on HsEH (setting [1]) and 0.58 nM against MsEH.

Take `CC12CC3CC(C)(C1)CC(NC(=O)Nc1ccc(CN4CCC[C@H](C(=O)NCCO)C4)cc1F)(C3)C2` [CL-114, (S)-1-(4-(3-((1r,3R,5S,7S)-3,5-dimethyladamantan-1-yl)ureido)-3-fluorobenzyl)-N-(2-hydroxyethyl) piperidine-3-carboxamide]: the 50% inhibitory concentration (IC50) on HsEH (setting [1]) amounted to 0.63 nM; against MsEH, 0.18 nM.

As to `CC12CC3CC(C)(C1)CC(NC(=O)Nc1ccc(CN4CCC[C@H](C(=O)NC(CO)(CO)CO)C4)cc1F)(C3)C2` [CL-115, (S)—N-(1,3-dihydroxy-2-(hydroxymethyl)propan-2-yl)-1-(4-(3-((1r,3R,5S,7S)-3,5-dimethyladamantan-1-yl)ureido)-3-fluorobenzyl) piperidine-3-carboxamide], the concentration for half-maximal inhibition (IC50) was found to be 0.14 nM at HsEH (setting [1]) and 0.32 nM on MsEH.

In the case of `CC12CC3CC(C)(C1)CC(NC(=O)Nc1ccc(CN4CCC[C@H](C(=O)N5CCN(CCO)CC5)C4)cc1F)(C3)C2` [CL-116, 1-((1r,3R,5S,7S)-3,5-dimethyladamantan-1-yl)-3-(2-fluoro-4-(((S)-3-(4-(2-hydroxyethyl)piperazine-1-carbonyl)piperidin-1-yl)methyl)phenyl) urea], the IC50 on HsEH (setting [1]) was 0.98 nM; against MsEH, 0.55 nM.

For the compound `CC12CC3CC(C)(C1)CC(NC(=O)Nc1ccc(CN4CCC(C(=O)NC(CO)(CO)CO)CC4)cc1F)(C3)C2` [CL-117, N-(1,3-dihydroxy-2-(hydroxymethyl)propan-2-yl)-1-(4-(3-((1r,7r)-3,5-dimethyladamantan-1-yl)ureido)-3-fluorobenzyl) piperidine-4-carboxamide], the IC50 on HsEH (setting [1]) came out at 6.51 nM; against MsEH, 0.12 nM.

`CC12CC3CC(C)(C1)CC(NC(=O)Nc1ccc(CN4CCC(C(=O)NC(CO)CO)CC4)cc1F)(C3)C2` [CL-119, N-(1,3-dihydroxypropan-2-yl)-1-(4-(3-((1r,7r)-3,5-dimethyladamantan-1-yl)ureido)-3-fluorobenzyl) piperidine-4-carboxamide]: the IC50 came to 31.6 nM on HsEH and 2.25 nM at MsEH.

Consider `CC(O)CNC(=O)C1CCN(Cc2ccc(NC(=O)NC34CC5CC(C)(CC(C)(C5)C3)C4)c(F)c2)CC1` (stereo not drawn) [CL-120, 1-(4-(3-((1r,7r)-3,5-dimethyladamantan-1-yl)ureido)-3-fluorobenzyl)-N-(2-hydroxypropyl) piperidine-4-carboxamide], for which the 50% inhibitory concentration (IC50) against HsEH turned out to be 6 nM; at MsEH, 0.47 nM.

With `C=CC(=O)N1CCCN(C(=O)[C@H]2CCCN(Cc3ccc(NC(=O)NC45CC6CC(C)(CC(C)(C6)C4)C5)c(F)c3)C2)CC1` [CL-201, 1-(4-(((S)-3-(4-acryloyl-1,4-diaza-1-carbonyl)piperidin-1-yl)methyl)-2-fluorophenyl)-3-((1r,3R,5S,7S)-3,5-dimethyladamantan-1-yl) urea], the IC50 on HsEH (setting [1]) stood at 0.42 nM; against MsEH, 1.1 nM.

Turning to `CC12CC3CC(C)(C1)CC(NC(=O)Nc1ccc(CN4CCC[C@H](C(=O)N5CCCN(C(=O)C6CC6)CC5)C4)cc1F)(C3)C2` [CL-204], the IC50 at HsEH (setting [1]) amounted to 0.42 nM; against MsEH it was 0.8 nM.

For `CCC(=O)N1CCC(CC(=O)N2CCCN(Cc3ccc(NC(=O)NC45CC6CC(C)(CC(C)(C6)C4)C5)c(F)c3)CC2)CC1` [GL-1, 1-((1r,3R,5S,7r)-3,5-dimethyladamantan-1-yl)-3-(2-fluoro-4-((4-(2-(1-propionylpiperidin-4-yl)acetyl)-1,4-diaza-1-yl)methyl)phenyl) urea], the IC50 on HsEH (setting [1]) worked out at 0.33 nM; at MsEH, 0.07 nM.

On to `CCC(C)C(=O)N1CCC(CC(=O)N2CCCN(Cc3ccc(NC(=O)NC45CC6CC(C)(CC(C)(C6)C4)C5)c(F)c3)CC2)CC1` [GL-2, 1-((1r,3R,5S,7r)-3,5-dimethyladamantan-1-yl)-3-(2-fluoro-4-((4-(2-(1-(2-methylbutyryl)piperidin-4-yl)acetyl)-1,4-diaza-1-yl)methyl)phenyl) urea], for which the half-maximal inhibitory concentration (IC50) at HsEH (setting [1]) was 0.77 nM; against MsEH, 0.16 nM.

As to `CC(=O)N1CCC(CC(=O)N2CCCN(Cc3ccc(NC(=O)NC45CC6CC(C)(CC(C)(C6)C4)C5)c(F)c3)CC2)CC1` [GL-3, 1-(4-((4-(2-(1-acetylpiperidin-4-yl)acetyl)-1,4-diaza-1-yl)methyl)-2-fluorophenyl)-3-((1r,3R,5S,7r)-3,5-dimethyladamantan-1-yl) urea], the values for the IC50 at HsEH (setting [1]) and against MsEH were 0.49 nM and 0.11 nM, respectively.

For the compound `CC12CC3CC(C)(C1)CC(NC(=O)Nc1ccc(CN4CCCN(C(=O)CC5CCN(CCO)CC5)CC4)cc1F)(C3)C2` [GL-21, 1-((1r,3R,5S,7r)-3,5-dimethyladamantan-1-yl)-3-(2-fluoro-4-((4-(2-(1-(2-hydroxyethyl)piperidin-4-yl)acetyl)-1,4-diaza-1-yl)methyl)phenyl) urea], the IC50 turned out to be 4.69 nM on HsEH and 0.61 nM on MsEH.
